According to patent US20230085945A1, “ORTHOGONAL SAFETY SWITCHES TO ELIMINATE GENETICALLY ENGINEERED CELLS” (The Board of Trustees of the Leland Stanford Junior …, priority 2020, published 2023):

Assays:
[1] = tested on: NANOG-YFP^+ hPSCs mixed with hPSC-derived sclerotome cells; assay: Ablation of undifferentiated hPSCs in a heterogeneous cell population (hPSCs spiked into day-5 sclerotome cells); assay type: cell-based, human
Protocol: (§1) FIG. 3: Implementation of the NANOG^iCasp9-YFP safety switch. A) Schema depicting how drug AP20187 induces dimerization of Caspase9 in undifferentiated NANOG^iCasp9-YFP hESCs, subsequently triggering cell death (top left). NANOG^iCasp9-YFP hESCs were treated for 24 hours with increasing concentrations of AP20187. AP20187 was withdrawn, and cultures were further grown in mTeSR1 to allow any surviving hESCs to grow; any surviving colonies were counted 1 week later (top right). Alkaline phosphatase staining of whole wells of a 12-well plate after 24-hour treatment with AP20187 (bottom). […] Bioluminescent imaging of mice occurred weekly for 5 weeks with no transplant control (NTC) animals included for relative luminescence normalization. Total flux (photons/sec) was measured for each animal and averaged. […] The percentage of surviving cells was calculated relative to untreated controls. […]
Flow cytometric quantification of viable cells—NANOG^iCasp9-YFP hESCs were dissociated into single cells with Accutase and 1×10^6 cells were plated per well in a 6-well plate pre-coated with Matrigel. […] Subsequently, to quantify the percentage of surviving cells, the cultures were dissociated with TrypLE Express. […] YFP^+ (i.e., NANOG^+) cells were analyzed (Beckman Coulter CytoFlex Analyzer) to count live cells for both untreated and AP20187-treated groups. […]

[2] = tested on: NANOG^iCasp9-YFP hPSC-derived day-6 liver progenitors, bone progenitors and forebrain progenitors; assay: Survival of differentiated hPSC-derived tissue progenitors after AP20; assay type: cell-based, human; details: 24-hour AP20 treatment
Protocol: as §1
Cell count assay—hESCs were dissociated with EDTA and 5×10^5 cells were plated per well of a 6-well plate that was pre-coated with Matrigel. […] Subsequently, cells were dissociated and the number of viable cells were counted using the Bio-Rad TC20™ Automated Cell Counter (trypan blue exclusion). […]

SMILES: CC[C@H](C(=O)N1CCCC[C@H]1C(=O)O[C@H](CCc1ccc(OC)c(OC)c1)c1cccc(OCC(=O)NCC(CNC(=O)COc2cccc([C@@H](CCc3ccc(OC)c(OC)c3)OC(=O)[C@@H]3CCCCN3C(=O)[C@@H](CC)c3cc(OC)c(OC)c(OC)c3)c2)CN(C)C)c1)c1cc(OC)c(OC)c(OC)c1 [AP20]
- decrease in NANOG-YFP^+ cells ([1]; 10% undifferentiated hPSCs in day-5 sclerotome progenitors, AP20 for last 24 hours): > 10 fold
- colony formation of surviving FACS-purified NANOG-YFP^+ cells ([1]; continued culture in hPSC media after AP20): did not form colonies
- differentiated progenitors spared / remaining viable [2]: > 95%
